Measurements reported in ChEMBL document CHEMBL5230141, “Focused Libraries for Epigenetic Drug Discovery: The Importance of Isosteres” (J Med Chem, 2021).

What was measured:
[1] = target: Histone-lysine N-methyltransferase EZH2 (Homo sapiens, UniProt Q15910); test: Inhibition of EZH2 (unknown origin)
[2] = Inhibition of PI3K (unknown origin); set-up: species or system Homo sapiens

Chain of Histone-lysine N-methyltransferase EZH2 (Q15910 whole entry): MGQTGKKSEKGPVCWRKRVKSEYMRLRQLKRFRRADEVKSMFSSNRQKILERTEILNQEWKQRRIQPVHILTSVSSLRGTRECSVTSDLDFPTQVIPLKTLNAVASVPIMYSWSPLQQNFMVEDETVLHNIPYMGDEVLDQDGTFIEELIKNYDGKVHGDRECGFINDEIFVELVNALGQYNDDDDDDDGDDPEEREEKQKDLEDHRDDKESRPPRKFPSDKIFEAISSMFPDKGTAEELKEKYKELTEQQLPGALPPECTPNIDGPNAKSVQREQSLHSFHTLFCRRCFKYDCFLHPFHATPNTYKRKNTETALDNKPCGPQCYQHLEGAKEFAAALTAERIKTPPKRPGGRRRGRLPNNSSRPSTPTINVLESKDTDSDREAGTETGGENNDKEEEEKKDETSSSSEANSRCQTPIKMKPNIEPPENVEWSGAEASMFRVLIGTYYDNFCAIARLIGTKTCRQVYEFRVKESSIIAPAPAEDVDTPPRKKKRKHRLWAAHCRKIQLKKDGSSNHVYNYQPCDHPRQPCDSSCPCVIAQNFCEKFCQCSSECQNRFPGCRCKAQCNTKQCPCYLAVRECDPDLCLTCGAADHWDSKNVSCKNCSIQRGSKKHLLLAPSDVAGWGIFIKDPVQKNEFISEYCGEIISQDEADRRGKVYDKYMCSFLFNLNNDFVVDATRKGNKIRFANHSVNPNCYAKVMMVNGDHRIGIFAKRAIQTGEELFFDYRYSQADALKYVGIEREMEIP

SMILES: Cc1cc(C)c(CNC(=O)c2cc(C)n(C3CCCCC3)c2C)c(=O)[nH]1
- EC50 [1]: 3.4 µM

SMILES: CC(C)Oc1ccc(-c2nn([C@@H](C)c3oc4ccc(F)cc4c(=O)c3-c3cccc(F)c3)c3ncnc(N)c23)cc1F [UMBRALISIB]
- Kd [2]: 0.0062 µM
